Laboratory results from US20250098679A1, “HERBICIDAL PYRIDONE DERIVATIVES” (SYNGENTA CROP PROTECTION AG, priority 2021, published 2025).

Columns and labels:
Type in all cases: in vivo
Settings in all cases: evaluated after 13 days
[1] = tested on: Ipomoea hederacea (IPOHE); test: Post-emergence Test, Ipomoea hederacea (IPOHE); set-up: key to percentage damage caused to the plant, IPOHE (five-point scale): 5=81-100%, 4=61-80%, 3=41-60%, 2=21-40%, 1=0-20% damage
Procedure: (§1) Seeds of a variety of test species are sown in standard soil in pots (Setaria faberi (SETFA), Echinochloa crus-galli (ECHCG), Zea mays (ZEAMX), Ipomoea hederacea (IPOHE), Amaranthus palmeri (AMAPA), Amaranthus retoflexus (AMARE)). After 8 days cultivation under controlled conditions in a glasshouse (at 24° C./16° C., day/night; 14 hours light; 65% humidity), the plants are sprayed with an aqueous spray solution derived from the formulation of the technical active ingredient in acetone/water (50:50) solution containing 0.5% Tween 20 (polyoxyethelyene sorbitan monolaurate, CAS RN 9005-64-5). Compounds are applied at 1000 g/ha unless otherwise stated. The test plants are then grown in a glasshouse under controlled conditions in a glasshouse (at 24° C./16° C., day/night; 14 hours light; 65% humidity) and watered twice daily. After 13 days the test is evaluated for the percentage damage caused to the plant. The biological activities are shown in the following table on a five-point scale (5=81-100%; 4=61-80%; 3=41-60%; 2=21-40%; 1=0-20%; -=not tested).

Setaria faberi (SETFA) = test: Post-emergence Test, Setaria faberi (SETFA); set-up: key to percentage damage caused to the plant, SETFA (five-point scale): 5=81-100%, 4=61-80%, 3=41-60%, 2=21-40%, 1=0-20% damage
Procedure: as §1

[2] = tested on: Amaranthus retoflexus (AMARE); test: Post-emergence Test, Amaranthus retoflexus (AMARE); set-up: key to percentage damage caused to the plant, AMARE (five-point scale): 5=81-100%, 4=61-80%, 3=41-60%, 2=21-40%, 1=0-20% damage
Procedure: as §1

[3] = tested on: Amaranthus palmeri (AMAPA); test: Post-emergence Test, Amaranthus palmeri (AMAPA); set-up: key: 5=81-100%, 4=61-80%, 3=41-60%, 2=21-40%, 1=0-20% damage
Procedure: as §1

[4] = tested on: Echinochloa crus-galli (ECHCG); test: Post-emergence Test, Echinochloa crus-galli (ECHCG); set-up: key to percentage damage caused to the plant, ECHCG (five-point scale): 5=81-100%, 4=61-80%, 3=41-60%, 2=21-40%, 1=0-20% damage
Procedure: as §1

Zea mays (ZEAMX) = test: Post-emergence Test, Zea mays (ZEAMX); set-up: key to percentage damage caused to the plant, ZEAMX (five-point scale): 5=81-100%, 4=61-80%, 3=41-60%, 2=21-40%, 1=0-20% damage
Procedure: as §1

Row | Compound | percentage damage caused to the plant, IPOHE (five-point scale) ([1]; 1000 g/ha) | percentage damage caused to the plant, SETFA (five-point scale) (Setaria faberi (SETFA); 1000 g/ha) | percentage damage caused to the plant, AMARE (five-point scale) ([2]; 1000 g/ha) | percentage damage caused to the plant, AMAPA (five-point scale) ([3]; 1000 g/ha) | percentage damage caused to the plant, ECHCG (five-point scale) ([4]; 1000 g/ha) | percentage damage caused to the plant, ZEAMX (five-point scale) (Zea mays (ZEAMX); 1000 g/ha) | percentage damage caused to the plant, IPOHE (five-point scale) ([1]; 250 g/Ha) | percentage damage caused to the plant, SETFA (five-point scale) (Setaria faberi (SETFA); 250 g/Ha) | percentage damage caused to the plant, AMARE (five-point scale) ([2]; 250 g/Ha) | percentage damage caused to the plant, AMAPA (five-point scale) ([3]; 250 g/Ha) | percentage damage caused to the plant, ECHCG (five-point scale) ([4]; 250 g/Ha) | percentage damage caused to the plant, ZEAMX (five-point scale) (Zea mays (ZEAMX); 250 g/Ha) | Post-emergence Test IPOHE, percentage damage caused to the plant (five-point scale) ([1]; 1000 g/ha) | Post-emergence Test SETFA, percentage damage caused to the plant (five-point scale) (Setaria faberi (SETFA); 1000 g/ha) | Post-emergence Test AMARE, percentage damage caused to the plant (five-point scale) ([2]; 1000 g/ha) | Post-emergence Test AMAPA, percentage damage caused to the plant (five-point scale) ([3]; 1000 g/ha) | Post-emergence Test ZEAMX, percentage damage caused to the plant (five-point scale) (Zea mays (ZEAMX); 1000 g/ha)
1 | CCn1c(Cn2ccc(C(F)(F)F)n2)cc(=O)c(C(=O)O)c1-c1ccc(S(C)(=O)=O)c(Cl)c1 [Compound 129, 2-(3-chloro-4-methylsulfonyl-phenyl)-1-ethyl-4-oxo-6-[[3-(trifluoromethyl)pyrazol-1-yl]methyl]pyridine-3-carboxylic acid] | 0 | 0 | 0 | 0 | 1 (1=0-20%) | 1 (1=0-20%) | – | – | – | – | – | – | – | – | – | – | –
2 | CCn1c(Cn2ncc3ccccc32)cc(=O)c(C(=O)O)c1-c1ccc(Cl)c(Cl)c1 [Compound 105, 2-(3,4-dichlorophenyl)-1-ethyl-6-[indazol-1-ylmethyl)-4-oxo-pyridine-3-carboxylic acid] | 4 (4=61-80%) | 2 (2=21-40%) | 2 (2=21-40%) | 2 (2=21-40%) | 3 (3=41-60%) | 1 (1=0-20%) | 0 | 0 | 0 | 0 | 3 (3=41-60%) | 0 | – | – | – | – | –
3 | CCOC(=O)c1c(-c2ccc(Cl)c(Cl)c2)n(CC)c(Cn2cnc([N+](=O)[O-])n2)cc1=O [Compound 43, ethyl 2-(3,4-dichlorophenyl)-1-ethyl-6-[(3-nitro-1,2,4-triazol-1-yl)methyl]-4-oxo-pyridine-3-carboxylate] | 0 | 1 (1=0-20%) | 0 | 1 (1=0-20%) | 1 (1=0-20%) | 1 (1=0-20%) | 0 | 0 | 1 (1=0-20%) | 1 (1=0-20%) | 1 (1=0-20%) | 0 | – | – | – | – | –
4 | CCn1c(Cn2ccnc2C2CC2)cc(=O)c(C(=O)O)c1-c1ccc(Cl)c(Cl)c1 [Compound 95, 6-[(2-cyclopropylimidazol-1-yl)methyl]-2-(3,4-dichlorophenyl)-1-ethyl-4-oxo-pyridine-3-carboxylic acid] | 1 (1=0-20%) | 1 (1=0-20%) | 0 | 1 (1=0-20%) | 1 (1=0-20%) | 1 (1=0-20%) | – | – | – | – | – | – | – | – | – | – | –
5 | CCn1c(Cn2cnc(C(F)(F)F)c2)cc(=O)c(C(=O)O)c1-c1ccc(Cl)c(Cl)c1 [Compound 10, 2-(3,4-dichlorophenyl)-1-ethyl-4-oxo-6-[[4-(trifluoromethyl)imidazol-1-yl]methyl]pyridine-3-carboxylic acid] | 1 (1=0-20%) | 0 | 0 | 0 | 0 | 1 (1=0-20%) | – | – | – | – | – | – | – | – | – | – | –
6 | CCn1c(Cn2cnc(Cl)c2Cl)cc(=O)c(C(=O)O)c1-c1ccc(Cl)c(Cl)c1 [Compound 126, 6-[(4,5-dichloroimidazol-1-yl)methyl]-2-(3,4-dichlorophenyl)-1-ethyl-4-oxo-pyridine-3-carboxylic acid] | 0 | 0 | 0 | 1 (1=0-20%) | 0 | 1 (1=0-20%) | 0 | 0 | 0 | 0 | 1 (1=0-20%) | 0 | – | – | – | – | –
7 | CCc1ncnn1Cc1cc(=O)c(C(=O)O)c(-c2ccc(Cl)c(Cl)c2)n1CC [Compound 70, 2-(3,4-dichlorophenyl)-1-ethyl-6-[(5-ethyl-1,2,4-triazol-1-yl)methyl]-4-oxo-pyridine-3-carboxylic acid] | 1 (1=0-20%) | 2 (2=21-40%) | 1 (1=0-20%) | 1 (1=0-20%) | 1 (1=0-20%) | 0 | – | – | – | – | – | – | – | – | – | – | –
8 | CCn1c(Cn2nc(C)cc2OC(C)(C)C)cc(=O)c(C(=O)O)c1-c1ccc(Cl)c(Cl)c1 [Compound 152, 6-[(5-tert-butoxy-3-methyl-pyrazol-1-yl)methyl]-2-(3,4-dichlorophenyl)-1-ethyl-4-oxo-pyridine-3-carboxylic acid] | 0 | 0 | 1 (1=0-20%) | 1 (1=0-20%) | 1 (1=0-20%) | 1 (1=0-20%) | – | – | – | – | – | – | – | – | – | – | –
9 | CCn1c(Cn2ccc(C(F)(F)F)n2)cc(=O)c(C(=O)O)c1-c1ccc(Cl)c(S(C)(=O)=O)c1 [Compound 116, 2-(4-chloro-3-methylsulfonyl-phenyl)-1-ethyl-4-oxo-6-[[3-(trifluoromethyl)pyrazol-1-yl]methyl]pyridine-3-carboxylic acid] | 1 (1=0-20%) | 1 (1=0-20%) | 1 (1=0-20%) | 1 (1=0-20%) | 1 (1=0-20%) | 1 (1=0-20%) | – | – | – | – | – | – | – | – | – | – | –
10 | CCn1c(Cn2ccc(Cl)n2)cc(=O)c(C(=O)O)c1-c1ccc(Cl)c(C#N)c1 [Compound 131, 2-(4-chloro-3-cyano-phenyl)-6-[(3-chloropyrazol-1-yl)methyl]-1-ethyl-4-oxo-pyridine-3-carboxamide acid] | 1 (1=0-20%) | 2 (2=21-40%) | 0 | 0 | – | 0 | – | – | – | – | – | – | – | – | – | – | –
11 | CCn1c(Cn2ccc(-c3cccc(Cl)c3)n2)cc(=O)c(C(=O)O)c1-c1ccc(Cl)c(Cl)c1 [Compound 202, 6-[[3-(3-chlorophenyl)pyrazol-1-yl]methyl]-2-(3,4-dichlorophenyl)-1-ethyl-4-oxo-pyridine-3-carboxylic acid] | – | – | – | – | – | – | – | – | – | – | – | – | 1 (1=0-20%) | 1 (1=0-20%) | 0 | 0 | 1 (1=0-20%)
12 | CCn1c(Cn2nc(C#N)cc2C#N)cc(=O)c(C(=O)O)c1-c1ccc(Cl)c(Cl)c1 [Compound 132, 2-(3,4-dichlorophenyl)-6-[(3,5-dicyanopyrazol-1-yl)methyl]-1-ethyl-4-oxo-pyridine-3-carboxylic acid] | 0 | 1 (1=0-20%) | 0 | – | 1 (1=0-20%) | 1 (1=0-20%) | – | – | – | – | – | – | – | – | – | – | –
